Test results published in patent publication US8598344B2, “CDKI pathway inhibitors and uses thereof” (Senex Biotechnology, priority 2009, dated 2013).

Tested on: irradiated, senescent WI38 fibroblasts
Assay: Paracrine antiapoptotic activity of irradiated, senescent WI38 fibroblasts (survival of C8 cells in low serum)
Assay type: cell-based
Conditions: C8 cell luciferase, 0.5% serum
Excerpt: As discussed by Roninson (Cancer Lett. 179, 1-14, 2002), all the treatments known to induce the production of tumor-promoting secreted factors by cancer-associated stromal fibroblasts activate the CDKI pathway, including exposure to ionizing radiation and the induction of senescence. Since this pathway is the target of compounds according to the invention, such compounds may be the first agents to target tumor-supporting activities of cancer-associated fibroblasts. Some of the fibroblast-activating treatments include exposure to ionizing radiation and the induction of senescence through various means (Krtolica et al., Proc. Natl. Acad. Sci. USA 98, 12072, 2001). We have adopted a 96-well assay for anti-apoptotic activity that we have previously used with p21-expressing fibrosarcoma cells (Chang et al., Proc. Natl. Acad. Sci. USA 97, 4291-4296, 2000), to measure a tumor-promoting activity of normal proliferating fibroblasts and fibroblasts exposed to ionizing radiation and consequently developing the senescent phenotype. In this assay, WI38 fibroblasts are irradiated with 10 Gy using an MDS Nordion Gammacell 40 irradiator, or left unirradiated. […] On day 7, cells are lysed and the amount of luciferase activity associated with C8 cells is determined. […]

## N#Cc1ccc2ncnc(NCCc3ccccc3)c2c1 [compound 1]
  decrease of paracrine tumor-promoting (antiapoptotic) effect of irradiated/senescent fibroblasts: ~3 fold
